How the values were obtained:
[1] = Inhibition of PKA
[2] = target: T1, RAC-alpha serine/threonine-protein kinase (Homo sapiens, UniProt P31749); assay: Inhibition of AKT1 in human U87 cells after 2 hrs by ELISA; type: cell-based, U-87MG ATCC
[3] = Antitumor activity against human myristoylated Akt1-activated rat Rat-1a cells xenografted mouse assessed as tumor growth inhibition at 50 mg/kg, qd, po for 10 days; type: functional; conditions: 240 h
[4] = target: T1, RAC-alpha serine/threonine-protein kinase; assay: Inhibition of AKT1

T1 sequence (P31749 whole entry): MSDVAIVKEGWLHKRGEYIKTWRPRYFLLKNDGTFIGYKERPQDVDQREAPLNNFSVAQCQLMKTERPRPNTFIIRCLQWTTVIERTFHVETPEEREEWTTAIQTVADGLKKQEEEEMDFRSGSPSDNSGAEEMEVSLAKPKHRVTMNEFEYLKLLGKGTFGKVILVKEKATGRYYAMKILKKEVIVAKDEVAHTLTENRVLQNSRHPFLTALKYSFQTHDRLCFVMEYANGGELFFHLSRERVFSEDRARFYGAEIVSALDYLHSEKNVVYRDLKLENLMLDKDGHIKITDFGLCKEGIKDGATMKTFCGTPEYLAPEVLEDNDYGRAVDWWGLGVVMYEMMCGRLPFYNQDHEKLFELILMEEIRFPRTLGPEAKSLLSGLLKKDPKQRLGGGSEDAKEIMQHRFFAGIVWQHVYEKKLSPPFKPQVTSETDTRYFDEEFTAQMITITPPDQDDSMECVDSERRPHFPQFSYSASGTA

| IC50 [1] [nM] | IC50 [2] [nM] | IC50 [4] [nM] | SMILES | inhibition in vivo at 50 mg/kg [3] [%] |
| --- | --- | --- | --- | --- |
| 3.6 | 50 | 2.4 | N#Cc1c[nH]c2ncnc(N3CC4(CCNCC4)c4ccccc43)c12 | 68 |
|  | 122 | 4.8 | Cc1c[nH]c2ncnc(N3CC4(CCNCC4)c4ccccc43)c12 |  |
|  | 96 | 5.3 | c1ccc2c(c1)N(c1ncnc3[nH]ccc13)CC21CCNCC1 |  |
|  |  | 171 | Cc1nnc(-c2cc(Cl)ccc2Nc2ncnc3[nH]ccc23)[nH]1 |  |
|  |  | 318 | Clc1c[nH]c2ncnc(Nc3ccccc3-c3nnc[nH]3)c12 |  |
|  |  | 210 | c1ccc(-c2nnc[nH]2)c(Nc2ncnc3[nH]ccc23)c1 |  |
|  |  | > 10000 | Cn1ccc2c(Nc3ccccc3-c3nnc[nH]3)ncnc21 |  |
|  | 75 | 3.1 | Fc1ccc2c(c1)C1(CCNCC1)CN2c1ncnc2[nH]ccc12 |  |
|  |  | 294 | c1nc(N2CCc3nc[nH]c3C2)c2cc[nH]c2n1 |  |
|  |  | 425 | Cc1c[nH]c2ncnc(Nc3ccccc3-c3nnc[nH]3)c12 |  |
|  |  | 3190 | CS(=O)(=O)N1CCC2(CC1)CN(c1ncnc3[nH]ccc13)c1ccc(F)cc12 |  |
|  |  | 1330 | c1ccc(Cc2c[nH]c3ncnc(N4CC5(CCNCC5)c5ccccc54)c23)cc1 |  |
|  | 64 | 5.8 | Clc1c[nH]c2ncnc(N3CC4(CCNCC4)c4ccccc43)c12 |  |
|  |  | 2790 | CC(=O)N1CCC2(CC1)CN(c1ncnc3[nH]ccc13)c1ccc(F)cc12 |  |
|  |  | > 10000 | Cc1nnc(-c2ccc(Cl)cc2Nc2ncnc3[nH]ccc23)[nH]1 |  |
|  | 51 | 4.8 | Clc1ccc2c(c1)C1(CCNCC1)CN2c1ncnc2[nH]ccc12 |  |

| SMILES | IC50 [1] [nM] | IC50 [2] [nM] | IC50 [4] [nM] | inhibition in vivo at 50 mg/kg [3] [%] |
| --- | --- | --- | --- | --- |
| CN1CCC2(CC1)CN(c1ncnc3[nH]ccc13)c1ccccc12 |  | 136 | 12.7 |  |
